These are literature values, as cited in US20090061517A1, “Cell culture apparatus and methods of making and using same” (priority 2007, published 2009).

For the series the following is noted: in humans.

SMILES strings stand for the structures.

In the case of `C[C@H]1COc2c(N3CCN(C)CC3)c(F)cc3c(=O)c(C(=O)O)cn1c23` [levofloxacin], the “idiosyncratic hepatotoxicity / idiosyncratic adverse drug reactions” value was “without liability for causing idiosyncratic adverse drug reactions”.

With `N[C@@H]1[C@H]2CN(c3nc4c(cc3F)c(=O)c(C(=O)O)cn4-c3ccc(F)cc3F)C[C@@H]12` [trovafloxacin], the “idiosyncratic hepatotoxicity / idiosyncratic adverse drug reactions” value is listed as “linked to idiosyncratic hepatotoxicity in humans”.
